Here are results for three compounds from article PMC3712822 (Pharmacotherapy, 2011).

Each structure is given as a SMILES string. Like-named read-outs stand apart in the source and are kept apart here.

For series [1] the following is noted: patients taking atorvastatin; cited from earlier work.
For series [2] the following is noted: for AUC(0-inf) / half-life / Tmax / Cmax: human, plasma, oral; for AUC(0-inf): AUC0–∞; for AUC(0-inf) / Tmax / Cmax: median (IQR); for half-life: harmonic mean ± SD; for Cmax: atorvastatin + clarithromycin 500 mg twice/day.
Series [3] deals with human myocytes. Conditions: in vitro; cited from earlier work.
Series [4] concerns CYP3A. As to conditions: cited from earlier work.
Series [5] can be described thus: Plasma clarithromycin partial AUC in the atorvastatin plus clarithromycin phase. In kind it is in vivo. Conditions: human, oral, 500 mg, Partial AUC of clarithromycin (hrs 2–10), clarithromycin 500 mg twice/day, day 4, mean ± SD.
For series [6], the system named is CYP3A. As to conditions: classification by the United States Food and Drug Administration; cited from earlier work.
The mark [7] stands for this setting: 20 mg, CYP3A5 expressors (n=10), atorvastatin only.
Where [8] appears, read: 20 mg, CYP3A5 nonexpressors (n=13), atorvastatin only.
The mark [9] stands for this setting: CYP3A5 expressors (n=10), atorvastatin + clarithromycin.
Setting [10] is: CYP3A5 nonexpressors (n=13), atorvastatin + clarithromycin.

On to `CC(C)c1c(C(=O)Nc2ccccc2)c(-c2ccccc2)c(-c2ccc(F)cc2)n1CC[C@@H](O)C[C@@H](O)CC(=O)O` [atorvastatin acid, atorvastatin], for which the “Patients experiencing muscle-related adverse effects” value in series [1] is 3–8%.

For `CC(C)c1c(C(=O)Nc2ccccc2)c(-c2ccccc2)c(-c2ccc(F)cc2)n1CC[C@@H]1C[C@@H](O)CC(=O)O1` [atorvastatin lactone], the “AUC0–∞ higher in nonexpressors than in expressors” value in series [2] (atorvastatin-only phase, p=0.038) is 36%. Also, the AUC(0-inf) in series [2] (setting [7]) was determined as 0.0349 µg·h/mL; in series [2] (setting [8]), 0.0476 µg·h/mL; in series [2] (setting [9]), 0.11 µg·h/mL; in series [2] (setting [10]), 0.127 µg·h/mL. In addition, the half-life in series [2] (setting [7]) is 10.9 ± 4.5 h; in series [2] (setting [8]) it was 13.6 ± 5.2 h; in series [2] (setting [9]) it was 19.3 ± 5.4 h; in series [2] (setting [10]), 19.2 ± 5.2 h. For the same compound, the Tmax in series [2] (setting [7]) came to 2 h; in series [2] (setting [8]) it was 1 h; in series [2] (setting [9]), 5 h. Further, the Cmax in series [2] (CYP3A5 expressors (n=10)) and in series [2] (CYP3A5 nonexpressors (n=13)) was 4.2 ng/mL in each case. Moreover, the “Toxicity to human myocytes relative to the acid form” value in series [3] is “more toxic”. Further, in series [4], the “Affinity for CYP3A relative to atorvastatin acid” value is “higher affinity”.

On to `CC[C@H]1OC(=O)[C@H](C)[C@@H](O[C@H]2C[C@@](C)(OC)[C@@H](O)[C@H](C)O2)[C@H](C)[C@@H](O[C@@H]2O[C@H](C)C[C@H](N(C)C)[C@H]2O)[C@](C)(OC)C[C@@H](C)C(=O)[C@H](C)[C@@H](O)[C@]1(C)O` [clarithromycin], for which the area under the curve (AUC) in series [5] (CYP3A5 expressors) is 17700 µg·h/mL; in series [5] (CYP3A5 nonexpressors) it was 21900 µg·h/mL. For the same compound, the CYP3A inhibitor classification result in series [6] was “strong CYP3A inhibitor”.
